Data published in patent US12600740B2, “Fluorinated N-acetyl glucosamine analogs and xylose derivatives” (UTI Limited Partnership, priority 2018, dated 2026).

Experiments:
[1] = tested on: CSPG production by astrocytes; assay: Western blot of astrocyte conditioned medium, MAB2030 (chondroitin sulfate GAG stubs); type: cell-based, mouse; details: for effect on CSPG production by astrocytes: astrocyte conditioned media, 50 μM, 48 hours; for Reduce CSPG production: astrocytes, significance class
From the text: Astrocytes are major producers of CSPGs following injury in the CNS [Jones, L. L., Margolis, R. U. & Tuszynski, M. H. The chondroitin sulfate proteoglycans neurocan, brevican, phosphacan, and versican are differentially regulated following spinal cord injury. Experimental Neurology 182, 399-411 (2003); Tang, X., Davies, J. E. & Davies, S. J. Changes in distribution, cell associations, and protein expression levels of NG2, neurocan, phosphacan, brevican, versican V2, and tenascin-C during acute to chronic maturation of spinal cord scar tissue. […] The Journal of neuroscience: the official journal of the Society for Neuroscience 20, 2427-2438 (2000); McKeon, R. J., Jurynec, M. J. & Buck, C. R. The chondroitin sulfate proteoglycans neurocan and phosphacan are expressed by reactive astrocytes in the chronic CNS glial scar. The Journal of neuroscience: the official journal of the Society for Neuroscience 19, 10778-10788 (1999); Haas, C. A., Rauch, U., Thon, N., Merten, T. & Deller, T. Entorhinal cortex lesion in adult rats induces the expression of the neuronal chondroitin sulfate proteoglycan neurocan in reactive astrocytes. The Journal of neuroscience: the official journal of the Society for Neuroscience 19, 9953-9963 (1999)] and they may help drive progression of disability in a model of progressive MS [Mayo, L. et al. Regulation of astrocyte activation by glycolipids drives chronic CNS inflammation. Nature medicine 20, 1147-1156 (2014)]. Therefore astrocytes were used as model cells to determine the ability of the sugar analogs to reduce synthesis of CSPGs. Since CSPGs are exported out of cells, the conditioned media from analog-treated astrocytes were probed by Western blots (FIG. 4). We used antibodies to both the stubs of chondroitin sulfate GAGs attached to the core protein (MAB2030) and to intact 4-sulfated chondroitin sulfate sidechains (2H6) (FIG. 4a). Particularly, we used the 2H6 antibody to label intact 4-sulfated chondroitin sulfate sidechains, and the MAB2030 antibody to detect the stubs of chondroitin sulfate GAGs attached to the core protein. […] 1998, 160 (8), 3812-3819. Poole Poole C. A.; Glant T. T.; Schofield J. R.; Chondrons from articular cartilage. (IV). Immunolocalization of proteoglycan epitopes in isolated canine tibial chondrons. J. Histochem. Cytochem. 1991, 39 (9), 1175-1187].
Astrocytes were plated in uncoated 6-well plates (3 replicate wells per treatment) at 1×10^6 cells/well in mixed glial media, and incubated at 5% CO2 and 37° C. Astrocytes were treated with compounds at 50 μM in AIM-V media for 48 hours. Media was pooled from 3 replicate wells in 15 ml 100K cutoff centricon tubes (EMD Millipore, #UFC905008), which were spun on an ultracentrifuge at 5000× g for 2 cycles of 10 minutes each. When harvested, the cell lysate was kept on ice for 5 minutes with 250 μL of RIPA buffer (ThermoFisher Scientific #89900) containing proteinase inhibitor, and then collected and centrifuged at 14000 g for 5 minutes. Total protein was quantified using a Bradford assay. Conditioned media that were to be probed for chondroitin 4-sulfate GAGs (Millipore, #MAB2030) were first digested with 0.2 U/ml chondroitinase ABC for overnight at 37° C. to remove chondroitin sulfate sidechains. Blots that were to be probed with CSA (2H6, Cosmo) or CS56 (Abcam #ab11570) were not exposed to chondroitinase ABC. Samples were heat denatured with NuPAGE® LDS Sample buffer at 70° C. for 10 minutes and then loaded into 3-8% tris-acetate pre-cast gels (ThermoFisher, #EA0478BOX). The gels were electrophoresed at a constant 150 V for 90 minutes and transferred to a […] polyvinylidene fluoride membrane at a constant 250 mA for 60 minutes. The membranes were blocked for one hour with 10% skim milk in Tris-buffered saline (TBS; 0.9% NaCl, 10 mM Tris-HCl, pH 7.5) containing 0.5% Tween 20 (TBS-T). Primary antibodies were added in 3% skim milk and incubated overnight at 4° C. […]

splenocytes = assay: Splenocyte thymidine proliferation assay (anti-CD3/anti-CD28); type: cell-based, mouse; details: for Reduce T cell proliferation: activated splenocytes, significance class
Experimental: It was assessed whether the glucosamine analogs have immunomodulatory properties on splenocytes isolated in culture. T cells within the splenocyte pool were polyclonally activated with anti-CD3 and anti-CD28 antibodies in the presence of compounds for 48 hours, and proliferation was determined by the uptake of tritiated thymidine and expressed as counts per minute. The relative change in proliferation of treated versus control splenocytes was taken in order to rank the compounds across multiple independent experiments (FIG. 8a).
The spleens were isolated from 8-10-week-old female C57BL/6 mice and homogenized. The cells were isolated by Ficoll gradient and spun for 30 min at 1,800 r.p.m. The cell suspension was removed and the cells were washed once with PBS. The cell pellet was subsequently re-suspended in Roswell Park Memorial Institute media containing 10% fetal bovine serum, 1% penicillin/streptomycin, 1% sodium pyruvate and 1% L-glutamine. Trypan blue exclusion was used to count live cells, and the cells were plated at 2.5×10^5 cells per well in a round-bottom 96-well plate and activated with 1,000 ng/ml plate-bound anti-CD3 and 1,000 ng/ml anti-CD28 suspended in media to preferentially activate T lymphocytes. Compounds were added at final concentrations of 25 μM. The cells were kept at 37° C. and 5% CO2 for 30 h, after which 10 μl/well (1 μCi per well) of 3H-thymidine was added for 18 h. The cells containing thymidine were harvested onto filter mats using a cell harvester and mats were allowed to dry for 24 h. The results were read by liquid scintillation counts.

Row | Compound | effect on CSPG production by astrocytes [1] | Reduce CSPG production [1] | Reduce T cell proliferation (splenocytes) | splenocyte proliferation (splenocytes; 25 μM, 48 hours)
1 | COC[C@H]1OC(OC(C)=O)[C@H](NC(C)=O)[C@@H](OC)[C@@H]1F (stereo partly drawn) [Compound 5, 2-Acetamido-1-O-acetyl-2,4-dideoxy-4-fluoro-3,6-di-O-methyl-α/β-D-glucopyranose] | did not affect CSPG synthesis | n.s. | n.s. | –
2 | CO[C@H]1[C@H](F)[C@@H](COC(C)=O)OC(OC(C)=O)[C@@H]1NC(C)=O (stereo partly drawn) [Compound 6, 2-Acetamido-1,6-di-O-acetyl-2,4-dideoxy-4-fluoro-3-O-methyl-α/β-D-glucopyranose] | did not affect CSPG synthesis | n.s. | n.s. | –
3 | CC(=O)OC[C@H]1OC(OC(C)=O)[C@H](NC(=O)C(F)(F)F)[C@@H](OC(C)=O)[C@@H]1F (stereo partly drawn) [Compound 9, 1,3,6-Tri-O-acetyl-2,4-dideoxy-4-fluoro-2-trifluroacetamido-α/β-D-glucopyranose] | did not lower CSPG production in astrocytes | n.s. | *** (***p < 0.001) | reduced splenocyte proliferation
4 | CC(=O)N[C@H]1C(OC(C)=O)O[C@H](COC(C)=O)[C@H](Cl)[C@@H]1OC(C)=O (stereo partly drawn) [Compound 15, 2-Acetamido-1,3,6-tri-O-acetyl-2,4-dideoxy-4-chloro-α/β-D-galactopyranoside] | – | n.s. | * (*p < 0.05) | –
5 | O[C@@H]1[C@@H](O)[C@H](OCc2ccccc2)OC[C@H]1O [Compound 19, reference compound] | CSPG production was not impacted | n.s. | n.s. | –
6 | CC(=O)O[C@@H]1[C@@H](OC(C)=O)[C@H](OCCO)OC[C@H]1OC(C)=O [Compound 20, 2-Hydroxyethyl 2,3,4-tri-O-acetyl-β-D-xylopyranoside] | CSPG production was not impacted | – | – | –
7 | CC(=O)O[C@@H]1[C@@H](OC(C)=O)[C@H](OCCOCCOCCOCCO)OC[C@H]1OC(C)=O [Compound 21, 2-(2-(2-(2-Hydroxyethoxy)ethoxy)ethoxy)ethyl 2,3,4-tri-O-acetyl-β-D-xylopyranoside] | effective at reducing CSPGs | – | – | –
8 | CC(=O)O[C@@H]1[C@@H](OC(C)=O)[C@H](OCCS(=O)(=O)[O-])OC[C@H]1OC(C)=O.[Na+] [Compound 22, 2-Sulfoethyl 2,3,4-tri-O-acetyl-β-D-xylopyranoside, sodium salt] | CSPG production was not impacted | – | – | –
9 | CC(=O)O[C@@H]1[C@@H](OC(C)=O)[C@@H](OCCCCCCS(=O)(=O)[O-])OC[C@H]1OC(C)=O.[Na+] [Compound 24, 6-Sulfohexyl 2,3,4-tri-O-acetyl-α-D-xylopyranoside, sodium salt] | did not act as an inhibitor | – | – | –
10 | CC(=O)O[C@@H]1OC[C@@H](F)[C@H](OC(C)=O)[C@H]1OC(C)=O [Compound 28, 1,2,3-tri-O-acetyl-4-deoxy-4-fluoro-β-D-xylopyranose] | did not reduce CSPG production | – | – | –
11 | CC(=O)N[C@H]1C(O)O[C@H](CO)[C@@H](O)[C@@H]1O (stereo partly drawn) [GlcNAc, N-Acetyl-D-glucosamine, reference compound] | did not affect CSPG production | – | – | –
